Data: the supplement of paper PMC11451515

System: SEM cells
Assay: cell viability relative to DMSO control; higher = less cytotoxic
Conditions: 48 h
Procedure, shortened: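 Cells were incubated for 48 h at 37°C before CellTiter-Glo One luminescence was read. The cells were NOMO1 or SEM (500 cells/well) or P12-Ichikawa (1000 cells/well) leukemia cells, adapted for at least four passages in each medium and seeded in 1536-well plates (5 μl). Dosing used library compounds in DMSO applied by pin over 11 threefold points, 47 μM to 0.79 nM. Viability is the per-plate percentage of DMSO wells, with cell-free wells as background.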

[1] = HPLM + 10% dialyzed FBS, 0.000781 µM
[2] = HPLM + 10% dialyzed FBS, 0.00234 µM
[3] = HPLM + 10% dialyzed FBS, 0.00702 µM
[4] = HPLM + 10% dialyzed FBS, 0.0211 µM
[5] = HPLM + 10% dialyzed FBS, 0.0632 µM
[6] = HPLM + 10% dialyzed FBS, 0.19 µM
[7] = HPLM + 10% dialyzed FBS, 0.569 µM
[8] = HPLM + 10% dialyzed FBS, 1.71 µM
[9] = HPLM + 10% dialyzed FBS, 5.12 µM
[10] = HPLM + 10% dialyzed FBS, 15.4 µM
[11] = HPLM + 10% dialyzed FBS, 46.1 µM
[12] = RPMI 5 mM glucose + 10% FBS, 0.000781 µM
[13] = RPMI 5 mM glucose + 10% FBS, 0.00234 µM
[14] = RPMI 5 mM glucose + 10% FBS, 0.00702 µM
[15] = RPMI 5 mM glucose + 10% FBS, 0.0211 µM
[16] = RPMI 5 mM glucose + 10% FBS, 0.0632 µM
[17] = RPMI 5 mM glucose + 10% FBS, 0.19 µM
[18] = RPMI 5 mM glucose + 10% FBS, 0.569 µM
[19] = RPMI 5 mM glucose + 10% FBS, 1.71 µM
[20] = RPMI 5 mM glucose + 10% FBS, 5.12 µM
[21] = RPMI 5 mM glucose + 10% FBS, 15.4 µM
[22] = RPMI 5 mM glucose + 10% FBS, 46.1 µM
[23] = RPMI 5 mM glucose + 10% dialyzed FBS, 0.000781 µM
[24] = RPMI 5 mM glucose + 10% dialyzed FBS, 0.00234 µM
[25] = RPMI 5 mM glucose + 10% dialyzed FBS, 0.00702 µM
[26] = RPMI 5 mM glucose + 10% dialyzed FBS, 0.0211 µM
[27] = RPMI 5 mM glucose + 10% dialyzed FBS, 0.0632 µM
[28] = RPMI 5 mM glucose + 10% dialyzed FBS, 0.19 µM
[29] = RPMI 5 mM glucose + 10% dialyzed FBS, 0.569 µM
[30] = RPMI 5 mM glucose + 10% dialyzed FBS, 1.71 µM
[31] = RPMI 5 mM glucose + 10% dialyzed FBS, 5.12 µM
[32] = RPMI 5 mM glucose + 10% dialyzed FBS, 15.4 µM
[33] = RPMI 5 mM glucose + 10% dialyzed FBS, 46.1 µM

Compound	cell viability [1]	cell viability [2]	cell viability [3]	cell viability [4]	cell viability [5]	cell viability [6]	cell viability [7]	cell viability [8]	cell viability [9]	cell viability [10]	cell viability [11]	cell viability [12]	cell viability [13]	cell viability [14]	cell viability [15]	cell viability [16]	cell viability [17]	cell viability [18]	cell viability [19]	cell viability [20]	cell viability [21]	cell viability [22]	cell viability [23]	cell viability [24]	cell viability [25]	cell viability [26]	cell viability [27]	cell viability [28]	cell viability [29]	cell viability [30]	cell viability [31]	cell viability [32]	cell viability [33]
C[C@H]([C@H](O)CCC(C)(C)O)[C@H]1CC[C@@]2(O)C/3=C/C(=O)[C@@H]4C[C@@H](O)[C@@H](O)C[C@]4(C)[C@H]3CC[C@]12C	111%	119%	102%	122%	103%	109%	110%	112%	108%	101%	106%	132%	104%	113%	125%	115%	113%	119%	123%	125%	110%	98%	–	–	–	–	–	–	–	–	–	–	–
C#CCN(C)[C@H](C)Cc1ccccc1	32.3%	83.6%	87.3%	83.5%	70.2%	91.8%	93.1%	90.2%	89.5%	87.2%	92.5%	34.7%	91.5%	103%	107%	83.4%	95.9%	62.6%	70.9%	95.7%	86.3%	90.5%	27.1%	89.6%	99.3%	97.9%	70.8%	89.6%	81.1%	86.9%	89.1%	93.8%	86%
COC[C@H](NC(=O)c1cnc(C)s1)C(=O)N[C@@H](COC)C(=O)N[C@@H](Cc1ccccc1)C(=O)[C@@]1(C)CO1	116%	97.1%	110%	121%	92.3%	5.47%	3.74%	3.51%	2.04%	1.53%	2.48%	102%	91.6%	111%	120%	82%	6.81%	3.82%	3.59%	2.31%	1.56%	2.78%	81.9%	87.7%	108%	101%	70.3%	5.77%	3.78%	2.78%	1.96%	1.46%	2.4%
CC1SC/2=C(C(O)=O)/C(=O)C3=CC(=C(C=C3N12)N4CCN(CC4)C\C5=C(C)\OC(=O)O5)F (configuration not stated)	–	–	–	–	–	–	–	–	–	–	–	61.5%	119%	128%	121%	124%	123%	132%	111%	121%	114%	112%	47.8%	125%	143%	130%	133%	102%	140%	126%	115%	116%	104%
CC(C)(C)OC(=O)CN(Cc1ccc(Cl)cc1)Cc1ccc([N+](=O)[O-])s1	110%	111%	101%	110%	110%	115%	109%	114%	92.8%	91.5%	43.7%	98.2%	103%	87.5%	94.4%	103%	108%	90.2%	110%	99.9%	95.2%	26.1%	90.7%	97.2%	94.3%	99.8%	92.8%	99.1%	97.3%	94%	91.2%	95.1%	21.1%
CSC1=CC(=CC=C1)NC2=NC3=C(C=N2)/C=C(C(=O)N3C)/C4=C(Cl)C=CC=C4Cl	86.5%	90.7%	97.7%	77.3%	86.4%	89.7%	97%	99.4%	88.9%	77%	55.2%	120%	110%	110%	53.5%	105%	97.4%	126%	120%	112%	91.4%	81.3%	96.1%	89%	91.9%	80.1%	96%	78.3%	103%	84.9%	84.3%	69.4%	52.4%
CC1(C)[C@@H](O[C@H]2O[C@H](C(=O)O)[C@@H](O)[C@H](O)[C@H]2O[C@@H]2O[C@H](C(=O)O)[C@@H](O)[C@H](O)[C@H]2O)CC[C@]2(C)[C@H]3C(=O)C=C4[C@@H]5C[C@@](C)(C(=O)O)CC[C@]5(C)CC[C@@]4(C)[C@]3(C)CC[C@@H]12	116%	113%	117%	104%	145%	114%	143%	128%	150%	165%	163%	–	–	–	–	–	–	–	–	–	–	–	–	–	–	–	–	–	–	–	–	–	–
C[C@H](NC(=O)C(=O)Nc1ccccc1C(C)(C)C)C(=O)N[C@@H](CC(=O)O)C(=O)COc1c(F)c(F)cc(F)c1F	89.4%	106%	103%	73.1%	117%	113%	123%	104%	58.4%	12.6%	18.2%	99.5%	103%	117%	78%	119%	112%	127%	104%	64.9%	9.34%	5.77%	90.8%	109%	104%	74.8%	118%	114%	113%	109%	56.9%	10.3%	6.8%
COCCOC(=O)C/1=C(C)/NC/2=C(C1C3=CC=CC(=C3)O)/C(=O)CC(C2)C4=C(OC)C=CC=C4 (configuration not stated)	90.2%	80.6%	106%	108%	98.2%	87.7%	100%	101%	94.3%	57%	30.1%	98.9%	96.8%	97.8%	126%	103%	90.6%	115%	90.8%	78.5%	45.6%	24.4%	80.8%	79.2%	122%	104%	105%	82.4%	102%	101%	74.1%	50.9%	21.7%
Cc1ccc(NC(=O)C2(c3ccc4c(c3)OC(F)(F)O4)CC2)nc1-c1cccc(C(=O)O)c1	106%	87.4%	109%	111%	93.5%	13.7%	16.4%	16.7%	9.88%	9.04%	6.17%	87.2%	86.6%	91.6%	91.5%	62.6%	11.1%	10.5%	10.5%	8.17%	7.53%	5.47%	97.9%	98.3%	97.7%	107%	71.9%	14.9%	13.2%	16.6%	9.71%	8.66%	6.45%
COC(=O)N1CCN(Cc2cccc(NC(=O)Nc3ccc(C)nc3)c2F)CC1	96.1%	95.2%	105%	108%	99.2%	105%	86.7%	100%	100%	102%	73.7%	122%	120%	120%	116%	119%	124%	124%	114%	116%	108%	96%	90.3%	107%	109%	106%	94.7%	112%	94.6%	90.1%	90.7%	86.4%	65.3%
CC[C@]1(O)C[C@H]2CN(CCC3=C([NH]C4=C3C=CC=C4)[C@@](C2)(C(=O)OC)C5=CC6=C(C=C5OC)N(C=O)[C@H]7[C@](O)([C@H](OC(C)=O)[C@]8(CC)\C=C/C[N@@]9CC[C@]67[C@H]89)C(=O)OC)C1	114%	104%	95.2%	84%	36.5%	24.7%	20.7%	23.2%	16.4%	10.7%	7.67%	70.8%	70.8%	67%	39.6%	13.4%	11%	12%	8.09%	4.93%	3.51%	2.93%	99.8%	108%	106%	90.3%	46.3%	18%	16.2%	18.1%	11.5%	6.29%	5.26%
Cc1ccc(-n2nc(C(C)(C)C)cc2NC(=O)Nc2ccc(OCCN3CCOCC3)c3ccccc23)cc1	78.7%	94%	91.9%	90.8%	86.7%	100%	84%	86.2%	82.2%	63.7%	61.8%	96.6%	115%	104%	103%	87.1%	87.1%	84.1%	80.8%	83.6%	64%	74.8%	89.9%	97.9%	79.6%	94.1%	92%	90%	83.7%	84.7%	84.1%	51.7%	58.8%
CO/N=C(/C(=O)N[C@@H]1C(=O)N2C(C(=O)O)=C(Cn3ccc(=N)n3CCO)CS[C@H]12)c1csc(N)n1	88.8%	90.5%	115%	108%	112%	122%	97.6%	117%	121%	132%	127%	123%	95%	130%	136%	130%	140%	125%	147%	122%	151%	138%	–	–	–	–	–	–	–	–	–	–	–
